Source: ChEMBL document CHEMBL1131896, “Probing the radical mechanism of galactose oxidase using an ultrafast radical probe” (Bioorg Med Chem Lett, 1999)

What was measured:
[1] = target: Galactose oxidase (Fusarium austroamericanum); assay: Binding constant against Galactose oxidase (GOase)
[2] = system: Galactose oxidase (Fusarium austroamericanum); assay: Inactivation rate constant against Galactose oxidase (GOase)

SMILES | Ki [1] | further results
OC[C@H]1C[C@@H]1c1ccccc1 [listing 1 of 2 here] | 5.6 mM | –
OC[C@H]1C[C@@H]1c1ccccc1 [listing 2 of 2 here] | – | K inact [2]: 0.0026 s⁻¹
[2H]C([2H])(O)[C@H]1C[C@@H]1c1ccccc1 (relative stereo) | 5.1 mM | –
OC[C@H]1C[C@@H]1c1ccccc1 (relative stereo) | – | K inact ([2]; tested as the 2H-labelled form): 0.00082 s⁻¹
